Test [1] addresses Bile salt export pump (Homo sapiens, UniProt O95342). The test is classed as functional.
The target of test [2] is Acetylcholinesterase (Homo sapiens, UniProt P22303). The test is classed as functional.
Test [3] deals with T1, Alpha-2A adrenergic receptor (Homo sapiens, UniProt P08913).
T1 sequence (P08913 whole entry): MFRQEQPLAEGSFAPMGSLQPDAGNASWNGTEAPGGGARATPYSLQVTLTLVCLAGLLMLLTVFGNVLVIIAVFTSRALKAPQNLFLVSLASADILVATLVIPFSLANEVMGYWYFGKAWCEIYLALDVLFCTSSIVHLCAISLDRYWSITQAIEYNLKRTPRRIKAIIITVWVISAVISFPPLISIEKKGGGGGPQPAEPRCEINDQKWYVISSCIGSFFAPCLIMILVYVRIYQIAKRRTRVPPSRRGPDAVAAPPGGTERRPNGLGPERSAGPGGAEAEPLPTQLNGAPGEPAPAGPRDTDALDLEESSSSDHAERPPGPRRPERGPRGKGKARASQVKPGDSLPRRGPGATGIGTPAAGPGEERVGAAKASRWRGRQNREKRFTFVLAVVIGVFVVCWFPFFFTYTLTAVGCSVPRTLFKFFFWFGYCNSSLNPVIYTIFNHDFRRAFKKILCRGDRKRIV

For test [4], the target named is T2, Muscarinic acetylcholine receptor M2 (Homo sapiens, UniProt P08172).
T2 sequence (P08172 whole entry): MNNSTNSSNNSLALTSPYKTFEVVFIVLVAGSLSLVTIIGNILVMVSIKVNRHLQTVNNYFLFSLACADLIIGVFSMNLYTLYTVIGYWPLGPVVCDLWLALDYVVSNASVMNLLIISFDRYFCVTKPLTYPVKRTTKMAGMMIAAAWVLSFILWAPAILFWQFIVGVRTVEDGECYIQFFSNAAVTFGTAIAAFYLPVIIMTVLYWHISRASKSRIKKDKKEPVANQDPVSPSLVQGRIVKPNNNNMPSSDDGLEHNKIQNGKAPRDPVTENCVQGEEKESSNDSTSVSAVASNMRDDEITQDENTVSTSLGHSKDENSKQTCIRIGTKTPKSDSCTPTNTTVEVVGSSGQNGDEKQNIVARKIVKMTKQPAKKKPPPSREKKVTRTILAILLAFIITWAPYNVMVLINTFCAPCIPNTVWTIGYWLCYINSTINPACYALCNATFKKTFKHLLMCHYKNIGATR

Test [5] has as its target D(1A) dopamine receptor (Homo sapiens, UniProt P21728).
The target in test [6] is D(3) dopamine receptor (Homo sapiens, UniProt P35462).
Test [7] addresses Prothrombin (Homo sapiens, UniProt P00734). In kind it is functional.
Test [8] deals with Histamine H3 receptor (Homo sapiens, UniProt Q9Y5N1).
In test [9] the target is T3, 5-hydroxytryptamine receptor 1A (Homo sapiens, UniProt P08908).
T3 sequence (P08908 whole entry): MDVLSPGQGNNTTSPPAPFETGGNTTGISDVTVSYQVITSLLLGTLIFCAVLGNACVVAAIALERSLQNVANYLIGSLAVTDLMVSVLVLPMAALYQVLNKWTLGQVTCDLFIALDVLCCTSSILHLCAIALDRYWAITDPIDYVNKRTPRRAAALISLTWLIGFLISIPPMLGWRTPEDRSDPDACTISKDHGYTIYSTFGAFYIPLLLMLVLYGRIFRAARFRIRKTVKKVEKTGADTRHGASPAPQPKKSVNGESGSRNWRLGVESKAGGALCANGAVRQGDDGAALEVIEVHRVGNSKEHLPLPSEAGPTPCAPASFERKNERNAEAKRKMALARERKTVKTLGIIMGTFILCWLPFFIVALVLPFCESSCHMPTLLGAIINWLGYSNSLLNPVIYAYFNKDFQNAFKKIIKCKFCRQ

Test [10] deals with 5-hydroxytryptamine receptor 2B (Homo sapiens, UniProt P41595). In kind it is functional, cell-based.
The target in test [11] is Voltage-gated inwardly rectifying potassium channel KCNH2 (Homo sapiens, UniProt Q12809). The test is classed as functional. Particulars: read-out: AC50.
Test [12] has as its target Mu-type opioid receptor (Homo sapiens, UniProt P35372).
Test [13] has as its target cGMP-inhibited 3',5'-cyclic phosphodiesterase 3A (Homo sapiens, UniProt Q14432). In kind it is functional.
Test [14] addresses 3',5'-cyclic-AMP phosphodiesterase 4A (Homo sapiens, UniProt P27815). In kind it is functional.
For test [15], the target named is T4, Prostaglandin G/H synthase 1 (Homo sapiens, UniProt P23219). In kind it is functional.
Test [16] has as its target T4, Prostaglandin G/H synthase 1. In kind it is functional. The source holds these as a separate data set.
Test [17] addresses Sodium-dependent noradrenaline transporter (Homo sapiens, UniProt P23975).
Test [18] concerns the target Sodium-dependent dopamine transporter (Homo sapiens, UniProt Q01959).
Test [19] addresses T5, Thromboxane A2 receptor (Homo sapiens, UniProt P21731).
T5 sequence (P21731 whole entry): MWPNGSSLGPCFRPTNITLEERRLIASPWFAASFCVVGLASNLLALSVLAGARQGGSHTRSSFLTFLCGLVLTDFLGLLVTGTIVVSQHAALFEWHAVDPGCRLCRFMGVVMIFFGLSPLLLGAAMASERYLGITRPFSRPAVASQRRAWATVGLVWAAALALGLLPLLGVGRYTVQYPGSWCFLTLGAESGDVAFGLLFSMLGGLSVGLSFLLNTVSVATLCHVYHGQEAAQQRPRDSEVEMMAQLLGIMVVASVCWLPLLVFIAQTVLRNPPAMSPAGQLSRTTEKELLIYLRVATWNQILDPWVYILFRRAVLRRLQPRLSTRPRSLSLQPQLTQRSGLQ
In kind it is functional, cell-based.

In test [20] the target is T5, Thromboxane A2 receptor. The test is classed as functional, cell-based. This is another data set of the same source.
Also: assay procedure not described here.

Sequence of D(1A) dopamine receptor (P21728 whole entry): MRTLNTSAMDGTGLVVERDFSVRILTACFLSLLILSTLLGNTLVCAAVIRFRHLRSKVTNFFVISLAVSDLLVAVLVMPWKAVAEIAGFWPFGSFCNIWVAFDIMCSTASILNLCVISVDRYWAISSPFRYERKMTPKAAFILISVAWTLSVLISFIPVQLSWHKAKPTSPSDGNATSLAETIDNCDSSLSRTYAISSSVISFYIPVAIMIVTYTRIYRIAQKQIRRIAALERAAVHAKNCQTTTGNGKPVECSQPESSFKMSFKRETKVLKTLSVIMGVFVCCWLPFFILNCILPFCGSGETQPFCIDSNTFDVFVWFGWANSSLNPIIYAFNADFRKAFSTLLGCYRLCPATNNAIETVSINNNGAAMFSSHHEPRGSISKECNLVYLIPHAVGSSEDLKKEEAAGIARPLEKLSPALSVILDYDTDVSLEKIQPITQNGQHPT
Sequence of Mu-type opioid receptor (P35372 whole entry): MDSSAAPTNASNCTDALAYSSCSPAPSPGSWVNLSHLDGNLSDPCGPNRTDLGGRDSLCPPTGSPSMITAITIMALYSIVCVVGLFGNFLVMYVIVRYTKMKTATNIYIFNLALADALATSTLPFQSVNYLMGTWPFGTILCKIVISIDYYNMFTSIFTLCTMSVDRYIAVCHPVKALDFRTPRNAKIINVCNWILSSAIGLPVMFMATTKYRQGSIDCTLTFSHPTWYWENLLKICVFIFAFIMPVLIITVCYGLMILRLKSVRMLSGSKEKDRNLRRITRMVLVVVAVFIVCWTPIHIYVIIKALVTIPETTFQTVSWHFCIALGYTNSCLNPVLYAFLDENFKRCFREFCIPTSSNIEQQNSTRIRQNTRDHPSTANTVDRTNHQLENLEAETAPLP
Sequence of 3',5'-cyclic-AMP phosphodiesterase 4A (P27815 whole entry): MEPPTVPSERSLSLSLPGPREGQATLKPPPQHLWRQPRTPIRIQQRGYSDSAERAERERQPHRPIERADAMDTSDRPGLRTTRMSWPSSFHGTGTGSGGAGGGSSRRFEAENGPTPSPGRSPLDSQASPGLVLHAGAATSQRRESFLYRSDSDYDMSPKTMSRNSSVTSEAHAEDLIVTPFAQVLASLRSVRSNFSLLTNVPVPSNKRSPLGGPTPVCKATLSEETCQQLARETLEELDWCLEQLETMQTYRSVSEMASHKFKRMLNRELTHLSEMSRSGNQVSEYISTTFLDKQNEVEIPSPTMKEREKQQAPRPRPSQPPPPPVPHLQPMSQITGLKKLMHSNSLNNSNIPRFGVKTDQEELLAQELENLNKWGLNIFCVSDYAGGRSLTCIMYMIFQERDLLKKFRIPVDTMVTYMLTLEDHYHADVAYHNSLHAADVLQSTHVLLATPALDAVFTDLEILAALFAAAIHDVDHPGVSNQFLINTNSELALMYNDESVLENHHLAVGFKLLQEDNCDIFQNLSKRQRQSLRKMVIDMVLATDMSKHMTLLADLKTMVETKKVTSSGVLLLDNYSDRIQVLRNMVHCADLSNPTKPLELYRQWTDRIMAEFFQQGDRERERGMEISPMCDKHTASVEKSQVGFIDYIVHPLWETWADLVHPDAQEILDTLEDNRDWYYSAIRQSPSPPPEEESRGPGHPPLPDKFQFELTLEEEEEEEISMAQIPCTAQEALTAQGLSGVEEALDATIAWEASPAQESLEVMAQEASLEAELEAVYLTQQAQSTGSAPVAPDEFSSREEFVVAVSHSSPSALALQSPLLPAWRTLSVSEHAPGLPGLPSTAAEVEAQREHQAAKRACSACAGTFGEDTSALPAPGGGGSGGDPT
Sequence of Acetylcholinesterase (P22303 whole entry): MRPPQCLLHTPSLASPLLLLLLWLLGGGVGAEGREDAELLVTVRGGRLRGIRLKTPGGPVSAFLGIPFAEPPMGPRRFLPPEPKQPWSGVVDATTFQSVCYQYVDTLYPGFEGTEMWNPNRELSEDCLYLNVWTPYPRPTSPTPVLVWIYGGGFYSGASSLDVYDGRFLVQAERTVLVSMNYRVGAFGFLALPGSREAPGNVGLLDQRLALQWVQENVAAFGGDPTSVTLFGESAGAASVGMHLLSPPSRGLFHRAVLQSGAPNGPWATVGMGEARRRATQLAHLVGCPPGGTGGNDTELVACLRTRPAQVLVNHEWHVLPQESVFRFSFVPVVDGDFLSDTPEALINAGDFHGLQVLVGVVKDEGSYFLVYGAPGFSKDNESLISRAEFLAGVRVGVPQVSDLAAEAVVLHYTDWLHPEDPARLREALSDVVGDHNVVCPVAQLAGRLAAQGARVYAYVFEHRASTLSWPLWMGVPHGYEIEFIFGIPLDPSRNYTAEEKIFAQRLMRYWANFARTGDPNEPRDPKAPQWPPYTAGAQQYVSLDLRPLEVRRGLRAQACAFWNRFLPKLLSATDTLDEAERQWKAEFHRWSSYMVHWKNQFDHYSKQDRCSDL
Sequence of Sodium-dependent dopamine transporter (Q01959 whole entry): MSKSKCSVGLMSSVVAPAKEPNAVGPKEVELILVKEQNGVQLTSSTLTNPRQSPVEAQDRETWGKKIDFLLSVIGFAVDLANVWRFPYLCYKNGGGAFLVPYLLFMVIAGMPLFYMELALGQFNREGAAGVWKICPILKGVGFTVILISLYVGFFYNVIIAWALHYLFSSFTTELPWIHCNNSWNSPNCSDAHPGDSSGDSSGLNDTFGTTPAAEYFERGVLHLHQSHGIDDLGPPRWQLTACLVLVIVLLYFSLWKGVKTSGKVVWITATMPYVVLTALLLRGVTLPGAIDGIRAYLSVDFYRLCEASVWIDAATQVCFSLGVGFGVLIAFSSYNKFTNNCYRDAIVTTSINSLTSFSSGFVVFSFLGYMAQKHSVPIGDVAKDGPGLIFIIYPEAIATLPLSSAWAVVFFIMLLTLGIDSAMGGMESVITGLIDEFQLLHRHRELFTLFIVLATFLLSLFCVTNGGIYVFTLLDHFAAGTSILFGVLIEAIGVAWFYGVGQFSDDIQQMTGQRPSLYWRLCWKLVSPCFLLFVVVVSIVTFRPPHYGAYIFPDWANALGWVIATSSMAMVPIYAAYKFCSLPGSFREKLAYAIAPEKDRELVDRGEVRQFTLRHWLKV
T4 sequence (P23219 whole entry): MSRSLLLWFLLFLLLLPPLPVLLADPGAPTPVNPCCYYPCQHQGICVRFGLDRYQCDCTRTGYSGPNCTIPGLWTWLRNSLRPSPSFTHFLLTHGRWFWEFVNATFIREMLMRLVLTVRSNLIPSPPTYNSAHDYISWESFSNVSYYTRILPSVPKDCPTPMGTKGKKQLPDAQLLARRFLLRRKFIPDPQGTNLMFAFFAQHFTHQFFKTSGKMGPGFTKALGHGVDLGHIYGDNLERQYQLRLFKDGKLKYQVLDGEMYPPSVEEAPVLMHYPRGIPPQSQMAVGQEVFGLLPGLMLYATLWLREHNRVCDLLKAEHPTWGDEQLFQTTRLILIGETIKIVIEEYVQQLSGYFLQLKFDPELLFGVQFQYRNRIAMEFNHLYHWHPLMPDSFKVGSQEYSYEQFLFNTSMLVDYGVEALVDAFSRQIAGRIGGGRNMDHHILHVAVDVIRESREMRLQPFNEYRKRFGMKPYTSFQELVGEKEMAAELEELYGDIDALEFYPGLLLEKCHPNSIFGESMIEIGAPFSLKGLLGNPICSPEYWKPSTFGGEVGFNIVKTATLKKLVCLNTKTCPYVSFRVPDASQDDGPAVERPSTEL
Sequence of 5-hydroxytryptamine receptor 2B (P41595 whole entry): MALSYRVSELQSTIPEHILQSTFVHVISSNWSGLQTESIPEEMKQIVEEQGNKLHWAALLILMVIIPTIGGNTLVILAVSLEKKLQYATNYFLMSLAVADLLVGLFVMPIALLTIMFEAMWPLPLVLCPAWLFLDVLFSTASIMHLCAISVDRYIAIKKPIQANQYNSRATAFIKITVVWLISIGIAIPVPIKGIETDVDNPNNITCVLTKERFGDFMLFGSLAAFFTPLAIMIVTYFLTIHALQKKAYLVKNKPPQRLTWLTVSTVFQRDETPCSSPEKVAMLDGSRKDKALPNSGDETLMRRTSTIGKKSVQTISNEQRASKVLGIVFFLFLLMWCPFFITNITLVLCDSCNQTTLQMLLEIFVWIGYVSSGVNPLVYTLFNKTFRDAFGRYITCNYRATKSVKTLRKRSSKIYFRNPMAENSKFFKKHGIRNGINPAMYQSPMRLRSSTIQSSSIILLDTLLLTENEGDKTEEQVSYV
Sequence of Sodium-dependent noradrenaline transporter (P23975 whole entry): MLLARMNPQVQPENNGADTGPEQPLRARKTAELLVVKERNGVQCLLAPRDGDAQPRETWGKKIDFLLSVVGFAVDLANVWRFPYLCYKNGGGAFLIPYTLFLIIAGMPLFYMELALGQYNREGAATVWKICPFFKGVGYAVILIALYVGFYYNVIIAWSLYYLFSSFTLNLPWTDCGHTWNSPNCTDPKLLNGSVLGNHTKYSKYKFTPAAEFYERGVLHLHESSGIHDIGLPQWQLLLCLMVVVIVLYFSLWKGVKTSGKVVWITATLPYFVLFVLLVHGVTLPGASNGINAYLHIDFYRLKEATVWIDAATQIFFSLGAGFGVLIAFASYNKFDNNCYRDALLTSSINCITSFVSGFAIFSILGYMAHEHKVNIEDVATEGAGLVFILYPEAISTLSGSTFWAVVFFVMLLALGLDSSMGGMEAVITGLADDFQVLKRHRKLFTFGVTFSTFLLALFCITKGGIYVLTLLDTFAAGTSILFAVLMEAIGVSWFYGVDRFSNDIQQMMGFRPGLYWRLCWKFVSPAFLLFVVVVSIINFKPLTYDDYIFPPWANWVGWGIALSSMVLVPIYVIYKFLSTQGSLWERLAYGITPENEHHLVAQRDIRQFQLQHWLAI

The term AC50 denotes the concentration giving half of the maximal activity seen. For `CC(C)[N+](C)(CCOC(=O)C1c2ccccc2Oc2ccccc21)C(C)C` [PROPANTHELINE], the AC50 in test [1] is over 300 µM; in test [2], over 30 µM; in test [3], over 30 µM; in test [4], 0.003 µM; in test [5], over 30 µM; in test [6], over 30 µM. Further, the AC50 is over 30 µM in test [7]; over 30 µM in test [8]; over 30 µM in test [9]; over 30 µM in [10]; 2 µM in test [11]; over 30 µM in [12]. Besides, the concentration at half-maximal activity (AC50) in test [13], in test [14], in test [15], in [16], in test [17] and in test [18] was over 30 µM throughout. Besides, the AC50 in [19] and in test [20] was over 30 µM each time.
For the compound `CNC(=O)c1cc(Oc2ccc(NC(=O)Nc3ccc(Cl)c(C(F)(F)F)c3)c(F)c2)ccn1` [REGORAFENIB], the AC50 was 3 µM in test [1]; over 30 µM in test [2]; over 10 µM in test [3]; over 30 µM in test [4]; 5.61 µM in [5]; over 30 µM in test [6]. The AC50 was over 30 µM in [7]; over 30 µM in [8]; 1.42 µM in test [9]; over 30 µM in test [10]; over 10 µM in test [11]; 4.43 µM in test [12]. The AC50 was over 30 µM in [13]; over 30 µM in test [14]; over 30 µM in test [15]; 17.5 µM in test [16]; 20 µM in [17]; 1.04 µM in test [18]. In addition, the AC50 was over 30 µM in [19] and 6.35 µM in test [20].
Consider `NC(=O)NS(=O)(=O)c1ccc(N)cc1` [SULFACARBAMIDE], for which the AC50 in test [1] was over 300 µM; in [2], over 30 µM; in test [3] it was over 30 µM; in [4], over 30 µM; in test [5] it was over 30 µM; in [6], over 30 µM. The AC50 in [7], in test [8], in test [9], in test [10], in test [11] and in test [12] was over 30 µM in each case. Moreover, the half-maximal activity concentration (AC50) in test [13], in test [14], in test [15], in [16], in [17] and in [18] was over 30 µM throughout. For the same compound, the AC50 in test [19] and in test [20] was over 30 µM in each case.
As to `CC1(C)O[C@@H]2[C@@H](CO[C@@]3(COS(N)(=O)=O)OC(C)(C)O[C@@H]23)O1` [TOPIRAMATE], the AC50 in test [1] was over 300 µM; in test [2], over 30 µM; in test [3] it was over 30 µM; in [4] it was over 30 µM; in [5], over 30 µM; in [6] it was over 30 µM. The AC50 in test [7], in [8], in [9], in test [10], in [11] and in [12] was over 30 µM each time. Besides, the AC50 in [13], in [14], in [15], in [16], in test [17] and in [18] was over 30 µM each time. Besides, the AC50 in test [19] and in test [20] was over 30 µM each time.

Values taken from ChEMBL document CHEMBL5291721, “A preclinical secondary pharmacology resource illuminates target-adverse drug reaction associations of marketed drugs” (Nat Commun, 2023).
